Data from patent publication US7053178B2, “Synthetic peptides and kits for diagnosis of anti-phospholipid syndrome” (Yeda Research Development Co., LTD, priority 1998, dated 2006).
Where no end group is shown, it is not given here.

Assays:
sera of SLE patients = test: ELISA binding of SLE patient sera to biotinylated peptides; set-up: species or system human; settings: SLE patients (N = 72), sera 1:50
Protocol: (§1) Binding of sera from patients with primary APS or secondary to SLE to the studied peptides was performed by ELISA. 96-well ELISA plates were coated with streptavidin, blocked with gelatin, incubated with biotinylated peptides (A,B,C,D) and blocked with gelatin. Sera of patients with APS or SLE were added at dilution of 1:50 and the percent of binding was probed with anti-human IgM or IgG conjugated to alkaline phosphatase. Half plate was coated with streptavidin without addition of peptide (for non-specific binding).

sera of APS patients = test: ELISA binding of APS patient sera to biotinylated peptides; set-up: species or system human; settings: APS patients (N = 43), sera 1:50
Protocol: ELISA streptavidin-coated plates were incubated with biotinylated A, B or C, control peptide D or cocktail of peptides A+B+C. Following blocking with 5% bovine sera, the patient sera were added at dilution of 1:50. The bound antibodies were detected by administration of anti-human IgG or IgM alkaline phosphatase and appropriate substrate.
as §1

sera of normal donors = test: ELISA binding of normal donor sera to biotinylated peptides; set-up: species or system human; settings: Normal donors (N = 100)
Protocol: as §1

[1] = test system: affinity purified anti-β2GPI Abs from APS patients; test: Fractionation of affinity purified anti-β2GPI Abs on peptide columns; type: binding, human
[2] = test system: sera of mice immunized with β2GPI; test: ELISA binding of sera of β2GPI-immunized mice to peptides; set-up: species or system BALB/c mice; settings: biotinylated peptide monomers on streptavidin plates, anti-mouse IgG
Protocol: Sera of immunized mice were screened for the presence of mouse antibodies to peptide A, B and C, by ELISA, with streptavidin-coated plates followed by incubation with biotinylated peptide A, B, and C. Blocked plates (3% gelatin) were exposed to different dilutions of the sera. The binding was probed by anti-mouse IgG alkaline phosphatase.
BALB/c mice were immunized (day 0) in the hindfootpads with 10 μg β2GPI in Complete Freund's Adjuvant (CFA), Three weeks after, the mice received a booster injection of β2GPI in PBS. Sera of the mice (anti-β2GPI) were used to screen peptides for the presence of B cell epitopes, as follows: 96-well ELISA plates were coated with streptavidin overnight at 4° C., followed by incubation with biotinylated peptide monomers A, B, C, or D, β2GPI or BSA in PBS (100 μM) for 2 hours at room temperature. The ELISA plates were blocked with 3% gelatin, and the mouse sera were added thereto at different dilutions. Binding was probed with goat anti-mouse IgG alkaline phosphatase.

anti-β2GPI ILA-1 mAb = test: Competition ELISA: inhibition of ILA-1 mAb binding to β2GPI; set-up: species or system human; settings: 10 μM peptide concentration
Protocol: FIGS. 1A–1C are graphs showing inhibition of the anti-β2GPI ILA-1, ILA-3 and G-3 mAbs binding to β2GPI by competition assays using increasing concentrations of the inhibitory monomer peptides A, B and C, respectively, and of unrelated peptide D as control. The percent of inhibition was calculated as follows: % inhibition=O.D control−O.D with inhibitor/O.D control×100. Each point represents mean±SD of three different experiments.
(e) Inhibition of anti-β2GPI mAb binding to β2GPI by the inhibitory peptides. For competition ELISA tests, the anti-β2GPI mAbs (10 μg/ml) were preincubated (overnight at 4° C.) with varying concentrations of the peptides. The competition reaction was then transferred to β2GPI-coated γ-irradiated ELISA plates (Nunc), and the assay continued as described above. The percentage of inhibition was calculated as follows: % inhibition=O.D control −O.D with inhibitor/O.D control×100.
(2a) The specificity of interaction of the mAbs with the corresponding synthetic peptides A, B, C and control peptide D as monomers, was assessed by inhibition experiments as described in Materials and Methods, sections (e) and (f).

[3] = test system: affinity purified anti-β2GPI IgM and IgG from APS patients; test: Competition ELISA: specificity of binding of patient anti-β2GPI IgM and IgG to peptides; set-up: species or system human; settings: competition with specific peptide versus cocktail of the other peptides
Protocol: FIGS. 6A–6C show specificity of binding of affinity purified anti-β2GPI IgM and IgG antibodies from APS patients to the inhibitory monomer peptides A, B and C by ELISA, following preincubation of the tested affinity purified immuno-globulin with or without the peptide or the β2GPI molecule, in fluid phase. FIG. 6A: Affinity purified anti-β2GPI IgM and IgG that recognize peptide A were tested for binding to peptide A following preincubation of the purified antibodies with peptide A, cocktail of peptides B+C+D or β2GPI. Each point represents one patient. FIG. 6B: Affinity purified anti-β2GPI IgM and IgG that recognize peptide B were tested for binding to peptide B following preincubation with peptide B, cocktail of peptides A+C+D or β2GPI. Each point represents one patient. FIG. 6C: Affinity purified anti-β2GPI IgM and IgG that recognize peptide C were tested for binding to peptide C following preincubation with peptide C, cocktail of peptides A+B+D or β2GPI. Each point represents one patient.
The specificity of the recognition of the studied anti-β2GPI epitopes A, B, C by anti-β2GPI Abs from APS patients was confirmed by competition assays in which specificity of binding of anti-β2GPI IgM and IgG from patients with APS to the inhibitory peptides was examined. Anti-β2GPI IgG and IgM affinity purified from APS patients (affinity purification of the antibodies was carried out by incubation of cardiolipin lyposomes with patients' sera overnight at 4° C. with rotation following sedimentation of the complexes (30000 rpm), elution of the bound Abs by KI 1M, extraction from the lyposomes by chloroform, and separation of the total anti-β2GPI IgM, IgG Abs into the different isotypes employing either anti-human-IgM-Sepharose or anti-human-IgG-Sepharose (Pharmacia)) were preincubated with β2GPI (triangles), specific peptide monomer (circles) or a cocktail of the other peptides as monomers (squares), and tested for their binding to the specific biotinylated peptide-coated ELISA plates.

| Sequence | Percent of sera recognizing the peptide, IgG (sera of SLE patients) [%] | Percent of sera recognizing the peptide, IgM (sera of SLE patients) [%] | Percent of sera recognizing the peptide, IgG (sera of APS patients) [%] | Percent of sera recognizing the peptide, IgM (sera of APS patients) [%] | Percent of sera recognizing the peptide, IgG (sera of normal donors) [%] | Percent of sera recognizing the peptide, IgM (sera of normal donors) [%] | Fraction of anti-β2GPI Abs (in percentage) recognizing the peptide ([1]; APS patient no. 1) [percentage] | Fraction of anti-β2GPI Abs (in percentage) recognizing the peptide ([1]; APS patient no. 2) [percentage] | Fraction of anti-β2GPI Abs (in percentage) recognizing the peptide ([1]; APS patient no. 3) [percentage] | Fraction of anti-β2GPI Abs (in percentage) recognizing the peptide ([1]; APS patient no. 4) [percentage] | Fraction of anti-β2GPI Abs (in percentage) recognizing the peptide ([1]; APS patient no. 5) [percentage] | Fraction of anti-β2GPI Abs (in percentage) recognizing the peptide ([1]; APS patient no. 6) [percentage] | Fraction of anti-β2GPI Abs (in percentage) recognizing the peptide ([1]; APS patient no. 7) [percentage] | Fraction of anti-β2GPI Abs (in percentage) recognizing the peptide ([1]; APS patient no. 8) [percentage] | Fraction of anti-β2GPI Abs (in percentage) recognizing the peptide ([1]; APS patient no. 9) [percentage] | Fraction of anti-β2GPI Abs (in percentage) recognizing the peptide ([1]; APS patient no. 10) [percentage] | reaction with antibodies from mice immunized with β2GPI [2] | inhibition of ILA-1 mAb binding to β2GPI (anti-β2GPI ILA-1 mAb) [%] | specificity of recognition of the peptide by anti-β2GPI IgM and IgG from APS patients [3] | Percent of sera recognizing the peptide, IgM (sera of APS patients; listed as peptide A) [%] |
| --- | --- | --- | --- | --- | --- | --- | --- | --- | --- | --- | --- | --- | --- | --- | --- | --- | --- | --- | --- | --- |
| CATLRVYKGG [Peptide C] | 2.8 | 14 | 16.3 | 27.9 | 1 | 0 | 0.4 | 3 | 39 | 22 | 1.8 | 23 | 5 | 4.2 | 0.5 | 16.4 | reacted specifically | 11 | recognized specifically | – |
| KDKATFGTHDG [Peptide B] | 11 | 12.5 | 20.9 | 25.6 | 0 | 1 | 37 | 15 | 0.5 | 43 | 29 | 14 | 18 | 33 | 1.3 | 7.9 | reacted specifically | 10 | bind specifically | – |
| NTLKTPRVGG [Peptide A] | 5.5 | 11 | 7 | 20.9 | 0 | 2 | 23 | 0.7 | 1.4 | 29 | 0.9 | 29 | 37 | 2.8 | 12 | 0.6 | reacted specifically | 97 | recognized specifically | 21 |
